Source: ChEMBL document CHEMBL1136014 (J Med Chem, 2002)

Assays:
CHO-K1 [1] = assay: Agonism of compound towards thyroid response element (TRAF beta) in CHO-K1 cells; assay type: functional, cell-based; conditions: Cricetulus griseus
CHO-K1 [2] = assay: Antagonism of compound towards thyroid response element (TRAF alpha) in CHO-K1 cells; conditions: Cricetulus griseus
[3] = target: T1, Thyroid hormone receptor beta (Homo sapiens, UniProt P10828)
T1 sequence (P10828 whole entry): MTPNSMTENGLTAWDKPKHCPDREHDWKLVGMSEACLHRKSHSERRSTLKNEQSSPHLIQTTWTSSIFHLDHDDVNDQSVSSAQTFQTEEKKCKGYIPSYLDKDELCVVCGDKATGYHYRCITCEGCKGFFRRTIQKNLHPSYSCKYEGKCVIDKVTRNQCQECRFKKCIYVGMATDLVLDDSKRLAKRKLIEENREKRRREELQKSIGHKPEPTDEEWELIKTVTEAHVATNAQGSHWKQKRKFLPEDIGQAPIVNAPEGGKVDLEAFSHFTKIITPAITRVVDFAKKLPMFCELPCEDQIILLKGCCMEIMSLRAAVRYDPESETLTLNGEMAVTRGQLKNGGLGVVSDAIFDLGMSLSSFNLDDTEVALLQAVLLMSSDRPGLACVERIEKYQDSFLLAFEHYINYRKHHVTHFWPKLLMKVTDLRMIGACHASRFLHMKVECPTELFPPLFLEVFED
Description: Concentration required to inhibit 50% of binding of [125I]T3 to human Thyroid hormone receptor beta 1 in CHO-K1 cells

CHO-K1 [4] = assay: Percentage agonism of compound towards thyroid response element (TRAF alpha) in CHO-K1 cells at 10 uM; Partial agonist; assay type: functional, Cricetulus griseus
CHO-K1 [5] = assay: Agonism of compound towards thyroid response element (TRAF alpha) in CHO-K1 cells; assay type: functional, cell-based; conditions: Cricetulus griseus
CHO-K1 [6] = assay: Antagonism of compound towards thyroid response element (TRAF beta) in CHO-K1 cells; conditions: Cricetulus griseus
[7] = target: T2, Thyroid hormone receptor alpha (Homo sapiens, UniProt P10827)
T2 sequence (P10827 whole entry): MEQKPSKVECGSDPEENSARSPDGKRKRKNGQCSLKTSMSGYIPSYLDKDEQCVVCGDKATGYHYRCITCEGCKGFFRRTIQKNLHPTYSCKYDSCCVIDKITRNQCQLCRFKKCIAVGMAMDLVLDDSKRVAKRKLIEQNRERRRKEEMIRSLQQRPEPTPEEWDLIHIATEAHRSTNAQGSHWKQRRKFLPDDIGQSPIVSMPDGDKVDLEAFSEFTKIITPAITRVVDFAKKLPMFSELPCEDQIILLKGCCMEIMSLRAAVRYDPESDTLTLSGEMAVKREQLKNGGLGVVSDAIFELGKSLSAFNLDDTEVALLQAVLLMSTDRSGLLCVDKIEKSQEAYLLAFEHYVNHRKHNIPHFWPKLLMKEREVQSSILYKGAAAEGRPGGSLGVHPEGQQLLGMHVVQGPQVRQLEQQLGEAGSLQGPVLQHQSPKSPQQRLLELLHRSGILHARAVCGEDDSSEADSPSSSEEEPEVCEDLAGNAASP
Description: Concentration required to inhibit 50% of binding of [125I]-T3 to human Thyroid hormone receptor alpha-1 in CHO-K1 cells

Rattus norvegicus [8] = assay: Effects on liver was determined from serum aspartate aminotransferase levels in female (5) rats after 2 weeks of daily oral administration of compound at 30 mg/kg (Control = 106+/-18); assay type: functional
Rattus norvegicus [9] = assay: Serum concentrations of T3 in rats after 2 weeks of daily oral administration of compound at 300 mg/kg (Control = 0.74+/-0.15); assay type: functional
Rattus norvegicus [10] = assay: Serum concentrations of Thyrotropin in rats after 2 weeks of daily oral administration of compound at 300 mg/kg (Control = 11.00+/-1.97); assay type: functional
Rattus norvegicus [11] = assay: Effects on liver was determined from serum cholesterol levels in male (5) rats after 2 weeks of daily oral administration of compound at 100 mg/kg (Control = 0.67+/-0.13); assay type: functional
[12] = target: L-type Ca2+ channel, dihydropyridine site (Rattus norvegicus, UniProt P22002+P27732+Q02485); assay: Percentage inhibition of [3H]nitrendipine binding to L-type [Ca2+] channel dihydropyridine site in rat cortical membranes at 2 uM (70-80 %); assay type: cell membranes, Membrane; conditions: probe [3H]nitrendipine
Rattus norvegicus [13] = assay: Effects on liver was determined from serum alanine aminotransferase levels in female (5) rats after 2 weeks of daily oral administration of compound at 300 mg/kg (Control = 23+/-5); assay type: functional
Rattus norvegicus [14] = assay: Serum concentrations of T4 in rats after 2 weeks of daily oral administration of compound at 300 mg/kg (Control = 33.1+/-5.00); assay type: functional
Rattus norvegicus [15] = assay: Effects on liver was determined from serum cholesterol levels in male (5) rats after 2 weeks of daily oral administration of compound at 300 mg/kg (Control = 0.67+/-0.13); assay type: functional
Rattus norvegicus [16] = assay: Effects on liver was determined from serum cholesterol levels in female (5) rats after 2 weeks of daily oral administration of compound at 100 mg/kg (Control = 0.73+/-0.05); assay type: functional
Rattus norvegicus [17] = assay: Effects on liver was determined from serum cholesterol levels in female (5) rats after 2 weeks of daily oral administration of compound at 300 mg/kg (Control = 0.73+/-0.05); assay type: functional
Rattus norvegicus [18] = assay: Effects on liver was determined from serum aspartate aminotransferase levels in male (5) rats after 2 weeks of daily oral administration of compound at 100 mg/kg (Control = 111+/-21); assay type: functional
Rattus norvegicus [19] = assay: Effects on liver was determined from serum alanine aminotransferase levels in female (5) rats after 2 weeks of daily oral administration of compound at 30 mg/kg (Control = 23+/-5); assay type: functional
Rattus norvegicus [20] = assay: Serum concentrations of T4 in rats after 2 weeks of daily oral administration of compound at 100 mg/kg (Control = 33.1+/-5.00); assay type: functional
Rattus norvegicus [21] = assay: Serum concentrations of Thyrotropin in rats after 2 weeks of daily oral administration of compound at 100 mg/kg (Control = 11.00+/-1.97); assay type: functional
Rattus norvegicus [22] = assay: Serum concentrations of T4 in rats after 2 weeks of daily oral administration of compound at 30 mg/kg (Control = 33.1+/-5.00); assay type: functional
Rattus norvegicus [23] = assay: Serum concentrations of T3 in rats after 2 weeks of daily oral administration of compound at 30 mg/kg (Control = 0.74+/-0.15); assay type: functional
Rattus norvegicus [24] = assay: Effects on liver was determined from serum alanine aminotransferase levels in female (5) rats after 2 weeks of daily oral administration of compound at 100 mg/kg (Control = 23+/-5); assay type: functional
Rattus norvegicus [25] = assay: Effects on liver was determined from serum alanine aminotransferase levels in male (5) rats after 2 weeks of daily oral administration of compound at 300 mg/kg (Control = 30+/-3); assay type: functional
Rattus norvegicus [26] = assay: Serum concentrations of T3 in rats after 2 weeks of daily oral administration of compound at 100 mg/kg (Control = 0.74+/-0.15); assay type: functional
Rattus norvegicus [27] = assay: Effects on liver was determined from serum cholesterol levels in female (5) rats after 2 weeks of daily oral administration of compound at 30 mg/kg (Control = 0.73+/-0.05); assay type: functional
Rattus norvegicus [28] = assay: Effects on liver was determined from serum aspartate aminotransferase levels in female (5) rats after 2 weeks of daily oral administration of compound at 100 mg/kg (Control = 106+/-18); assay type: functional
Rattus norvegicus [29] = assay: Effects on liver was determined from serum alanine aminotransferase levels in male (5) rats after 2 weeks of daily oral administration of compound at 30 mg/kg (Control = 30+/-3); assay type: functional
[30] = target: Sodium channel alpha subunits; brain (Types I, II, III) (Rattus norvegicus) (UniProt P04775+P04774+P08104); conditions: Forebrain, Membrane, 2 uM
Sodium channel alpha subunits; brain (Types I, II, III) (Rattus norvegicus), sequence (P04775 whole entry, looked up, other chains not shown): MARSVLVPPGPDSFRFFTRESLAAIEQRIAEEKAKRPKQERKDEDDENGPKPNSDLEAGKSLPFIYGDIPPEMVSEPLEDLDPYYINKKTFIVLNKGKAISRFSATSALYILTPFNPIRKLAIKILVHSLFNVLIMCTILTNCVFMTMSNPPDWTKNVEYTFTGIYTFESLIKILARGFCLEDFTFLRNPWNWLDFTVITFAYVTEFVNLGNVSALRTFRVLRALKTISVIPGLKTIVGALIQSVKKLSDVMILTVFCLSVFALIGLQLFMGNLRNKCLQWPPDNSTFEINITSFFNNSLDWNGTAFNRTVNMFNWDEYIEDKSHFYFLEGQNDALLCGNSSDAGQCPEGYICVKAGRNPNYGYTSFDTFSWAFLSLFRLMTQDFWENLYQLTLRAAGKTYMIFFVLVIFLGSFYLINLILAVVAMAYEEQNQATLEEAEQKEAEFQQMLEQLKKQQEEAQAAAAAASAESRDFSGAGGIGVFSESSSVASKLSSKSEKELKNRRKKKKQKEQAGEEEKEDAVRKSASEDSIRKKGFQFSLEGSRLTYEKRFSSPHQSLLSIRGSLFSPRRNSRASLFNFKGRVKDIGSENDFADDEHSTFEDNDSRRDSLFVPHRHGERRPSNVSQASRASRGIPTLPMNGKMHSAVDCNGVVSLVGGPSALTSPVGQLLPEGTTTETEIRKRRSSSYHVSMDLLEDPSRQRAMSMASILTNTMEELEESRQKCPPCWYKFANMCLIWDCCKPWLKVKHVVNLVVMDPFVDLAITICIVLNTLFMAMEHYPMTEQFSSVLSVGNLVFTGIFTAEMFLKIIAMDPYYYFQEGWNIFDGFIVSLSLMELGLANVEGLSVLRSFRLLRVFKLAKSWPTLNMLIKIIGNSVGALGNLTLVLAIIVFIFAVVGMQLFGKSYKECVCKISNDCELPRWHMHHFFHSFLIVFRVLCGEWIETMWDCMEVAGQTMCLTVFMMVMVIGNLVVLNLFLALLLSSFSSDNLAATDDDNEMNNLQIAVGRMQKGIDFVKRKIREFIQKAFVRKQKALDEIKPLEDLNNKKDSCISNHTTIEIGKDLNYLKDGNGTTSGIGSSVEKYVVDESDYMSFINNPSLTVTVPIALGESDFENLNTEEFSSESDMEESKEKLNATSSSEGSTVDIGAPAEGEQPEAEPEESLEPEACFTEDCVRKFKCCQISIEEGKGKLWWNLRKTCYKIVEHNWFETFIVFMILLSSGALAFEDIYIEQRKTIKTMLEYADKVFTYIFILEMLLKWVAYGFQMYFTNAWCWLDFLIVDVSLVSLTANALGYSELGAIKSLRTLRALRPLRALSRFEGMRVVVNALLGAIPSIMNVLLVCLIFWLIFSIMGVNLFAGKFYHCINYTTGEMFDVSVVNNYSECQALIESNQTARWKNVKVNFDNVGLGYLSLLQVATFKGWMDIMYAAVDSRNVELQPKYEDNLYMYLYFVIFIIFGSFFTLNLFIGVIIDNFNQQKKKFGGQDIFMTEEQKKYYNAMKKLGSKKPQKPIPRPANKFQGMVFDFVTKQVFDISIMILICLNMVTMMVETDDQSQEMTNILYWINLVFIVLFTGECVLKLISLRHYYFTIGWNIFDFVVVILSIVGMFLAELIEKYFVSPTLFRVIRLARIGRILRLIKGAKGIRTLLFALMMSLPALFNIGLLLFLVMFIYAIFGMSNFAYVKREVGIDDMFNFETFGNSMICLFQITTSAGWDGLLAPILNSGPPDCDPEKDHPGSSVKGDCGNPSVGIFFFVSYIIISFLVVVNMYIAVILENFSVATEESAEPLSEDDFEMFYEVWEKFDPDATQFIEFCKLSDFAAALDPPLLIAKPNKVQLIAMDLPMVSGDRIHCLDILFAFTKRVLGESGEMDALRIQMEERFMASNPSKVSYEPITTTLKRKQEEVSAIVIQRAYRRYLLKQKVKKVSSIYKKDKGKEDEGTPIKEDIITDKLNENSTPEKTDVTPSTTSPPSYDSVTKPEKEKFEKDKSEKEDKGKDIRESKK
Sodium channel alpha subunits; brain (Types I, II, III) (Rattus norvegicus), sequence (P08104 whole entry, looked up, other chains not shown): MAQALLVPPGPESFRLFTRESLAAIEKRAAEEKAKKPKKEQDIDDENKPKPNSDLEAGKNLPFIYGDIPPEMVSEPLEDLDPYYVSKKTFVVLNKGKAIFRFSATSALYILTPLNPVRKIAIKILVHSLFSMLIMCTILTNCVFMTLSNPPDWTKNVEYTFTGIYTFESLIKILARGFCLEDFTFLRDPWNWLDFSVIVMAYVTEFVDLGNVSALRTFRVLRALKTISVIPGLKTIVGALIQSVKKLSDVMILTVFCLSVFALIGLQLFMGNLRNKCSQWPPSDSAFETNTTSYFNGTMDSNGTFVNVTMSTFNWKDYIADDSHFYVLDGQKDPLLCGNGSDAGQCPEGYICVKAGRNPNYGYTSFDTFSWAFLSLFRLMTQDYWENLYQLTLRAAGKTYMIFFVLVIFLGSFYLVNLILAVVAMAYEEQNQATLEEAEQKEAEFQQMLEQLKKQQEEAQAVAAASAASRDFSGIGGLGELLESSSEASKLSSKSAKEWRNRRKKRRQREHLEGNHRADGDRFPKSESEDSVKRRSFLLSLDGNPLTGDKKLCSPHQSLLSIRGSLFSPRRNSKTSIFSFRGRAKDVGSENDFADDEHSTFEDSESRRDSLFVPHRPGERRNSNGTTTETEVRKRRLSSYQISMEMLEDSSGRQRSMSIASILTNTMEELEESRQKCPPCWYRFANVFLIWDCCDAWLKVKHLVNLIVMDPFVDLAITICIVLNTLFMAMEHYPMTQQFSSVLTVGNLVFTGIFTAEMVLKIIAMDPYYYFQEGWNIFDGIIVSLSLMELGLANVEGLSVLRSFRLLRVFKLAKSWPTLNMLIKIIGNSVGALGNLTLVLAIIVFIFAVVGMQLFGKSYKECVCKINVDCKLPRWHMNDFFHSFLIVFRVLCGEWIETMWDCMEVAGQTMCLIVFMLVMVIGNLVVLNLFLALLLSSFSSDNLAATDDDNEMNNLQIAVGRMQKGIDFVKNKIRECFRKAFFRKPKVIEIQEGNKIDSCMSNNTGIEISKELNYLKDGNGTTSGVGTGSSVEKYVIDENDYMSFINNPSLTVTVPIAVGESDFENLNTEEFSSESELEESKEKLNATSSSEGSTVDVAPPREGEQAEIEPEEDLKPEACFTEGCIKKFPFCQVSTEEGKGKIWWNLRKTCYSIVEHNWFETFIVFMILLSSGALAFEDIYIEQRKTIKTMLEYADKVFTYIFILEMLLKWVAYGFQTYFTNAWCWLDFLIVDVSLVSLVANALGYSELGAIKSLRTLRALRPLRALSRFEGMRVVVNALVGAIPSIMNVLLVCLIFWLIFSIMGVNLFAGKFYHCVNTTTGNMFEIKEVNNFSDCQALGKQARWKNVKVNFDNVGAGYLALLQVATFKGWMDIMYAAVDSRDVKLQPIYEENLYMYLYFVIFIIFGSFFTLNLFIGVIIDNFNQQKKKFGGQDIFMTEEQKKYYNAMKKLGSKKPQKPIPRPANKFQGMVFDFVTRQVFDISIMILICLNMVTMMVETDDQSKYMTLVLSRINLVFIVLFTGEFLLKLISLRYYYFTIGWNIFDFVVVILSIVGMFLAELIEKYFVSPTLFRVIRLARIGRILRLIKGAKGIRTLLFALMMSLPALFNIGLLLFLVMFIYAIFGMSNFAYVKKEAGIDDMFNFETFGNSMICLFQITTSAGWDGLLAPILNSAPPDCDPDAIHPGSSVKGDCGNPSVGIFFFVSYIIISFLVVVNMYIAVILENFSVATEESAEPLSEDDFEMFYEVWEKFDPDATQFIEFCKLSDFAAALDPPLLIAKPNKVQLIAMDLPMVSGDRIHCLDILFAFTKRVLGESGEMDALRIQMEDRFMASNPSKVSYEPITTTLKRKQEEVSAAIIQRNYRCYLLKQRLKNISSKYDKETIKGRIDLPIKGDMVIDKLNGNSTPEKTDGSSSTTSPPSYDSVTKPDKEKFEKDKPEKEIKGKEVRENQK

Rattus norvegicus [31] = assay: Effects on liver was determined from serum cholesterol levels in male (5) rats after 2 weeks of daily oral administration of compound at 30 mg/kg (Control = 0.67+/-0.13); assay type: functional
Rattus norvegicus [32] = assay: Effects on liver was determined from serum alanine aminotransferase levels in male (5) rats after 2 weeks of daily oral administration of compound at 100 mg/kg (Control = 30+/-3); assay type: functional
Rattus norvegicus [33] = assay: Serum concentrations of Thyrotropin in rats after 2 weeks of daily oral administration of compound at 30 mg/kg (Control = 11.00+/-1.97); assay type: functional
Rattus norvegicus [34] = assay: Effects on liver was determined from serum aspartate aminotransferase levels in male (5) rats after 2 weeks of daily oral administration of compound at 300 mg/kg (Control = 111+/-21); assay type: functional
Rattus norvegicus [35] = assay: Effects on liver was determined from serum aspartate aminotransferase levels in female (5) rats after 2 weeks of daily oral administration of compound at 300 mg/kg (Control = 106+/-18); assay type: functional
Rattus norvegicus [36] = assay: Effects on liver was determined from serum aspartate aminotransferase levels in male (5) rats after 2 weeks of daily oral administration of compound at 30 mg/kg (Control = 111+/-21); assay type: functional
Cavia porcellus [37] = assay: Action potential amplitude of compound on guinea pig papillary muscles after twenty days of daily i.p. injection of 40 mg/kg Control = 115); assay type: functional, Muscle tissue; conditions: route intraperitoneal
Cavia porcellus [38] = assay: Ratio of action potential duration (APD90/APD50) in guinea pig papillary muscles after twenty days of daily i.p. injection of 40 mg/kg Control = 1.10); assay type: functional, Papillary muscle; conditions: route intraperitoneal
Cavia porcellus [39] = assay: Action potential duration at 90% levels of repolarization in guinea pig papillary muscles after twenty days of daily i.p. injection of 40 mg/kg Control = 186); assay type: functional, Muscle tissue; conditions: route intraperitoneal
Cavia porcellus [40] = assay: Action potential duration at 50% levels of repolarization in guinea pig papillary muscles after twenty days of daily i.p. injection of 40 mg/kg (Control = 168); assay type: functional, Muscle tissue; conditions: route intraperitoneal
Cavia porcellus [41] = assay: Effective refractory period in guinea pig papillary muscles after twenty days of daily i.p. injection of 40 mg/kg Control = 201); assay type: functional, Muscle tissue; conditions: route intraperitoneal
Cavia porcellus [42] = assay: Vmax of the action potential amplitude in guinea pig papillary muscles after twenty days of daily i.p. injection of 40 mg/kg Control = 205); assay type: functional; set-up: dose 40 mg/kg; conditions: Muscle tissue

| Compound | EC50 (CHO-K1 [1]) | IC50 (CHO-K1 [2]) | IC50 [3] | EC50 (CHO-K1 [5]) | IC50 (CHO-K1 [6]) | IC50 [7] | ASAT levels (Rattus norvegicus [8]) | Thyroid status (Rattus norvegicus [9]) | Thyroid status (Rattus norvegicus [10]) | Cholestrol levels (Rattus norvegicus [11]) | ALAT levels (Rattus norvegicus [13]) | Thyroid status (Rattus norvegicus [14]) | Cholestrol levels (Rattus norvegicus [15]) | Cholestrol levels (Rattus norvegicus [16]) | Cholestrol levels (Rattus norvegicus [17]) | ASAT levels (Rattus norvegicus [18]) | ALAT levels (Rattus norvegicus [19]) | Thyroid status (Rattus norvegicus [20]) | Thyroid status (Rattus norvegicus [21]) | Thyroid status (Rattus norvegicus [22]) | other results |
| --- | --- | --- | --- | --- | --- | --- | --- | --- | --- | --- | --- | --- | --- | --- | --- | --- | --- | --- | --- | --- | --- |
| Cc1oc2ccccc2c1C(=O)c1cc(I)c(OCC(=O)O)c(I)c1 | 1.7 µM | > 10 µM | 0.48 µM | 0.45 µM | > 10 µM | 0.82 µM |  |  |  |  |  |  |  |  |  |  |  |  |  |  | Effect (CHO-K1 [4]): 56% |
| CCCCc1oc2ccccc2c1C(=O)c1cc(I)c(OCC(=O)O)c(I)c1 | > 10 µM | > 10 µM |  | > 10 µM | > 10 µM | 1.4 µM |  |  |  |  |  |  |  |  |  |  |  |  |  |  |  |
| CCCCc1oc2ccccc2c1C(=O)c1cc(I)c(OCCN(CC)CC)c(I)c1 [AMIODARONE] |  |  |  |  |  |  | 109 IU/l | 0.28 nM l-1 | 11.2 ng/mL | 1.26 g/L | 284 IU/l | 22.3 nM l-1 | 1.39 g/L | 1.18 g/L | 1.12 g/L | 131 IU/l | 23 IU/l | 43.2 nM l-1 | 16.1 ng/mL | 43.9 nM l-1 | inhibition at 2 µM [12]: 80%; Thyroid status (Rattus norvegicus [23]): 0.66 nM l-1; ALAT levels (Rattus norvegicus [24]): 62 IU/l; ALAT levels (Rattus norvegicus [25]): 103 IU/l; Thyroid status (Rattus norvegicus [26]): 0.66 nM l-1; Cholestrol levels (Rattus norvegicus [27]): 0.89 g/L; ASAT levels (Rattus norvegicus [28]): 133 IU/l; ALAT levels (Rattus norvegicus [29]): 35 IU/l; inhibition [30]: 70%; Cholestrol levels (Rattus norvegicus [31]): 0.77 g/L; ALAT levels (Rattus norvegicus [32]): 62 IU/l; Thyroid status (Rattus norvegicus [33]): 13.9 ng/mL; ASAT levels (Rattus norvegicus [34]): 550 IU/l; ASAT levels (Rattus norvegicus [35]): 2052 IU/l; ASAT levels (Rattus norvegicus [36]): 110 IU/l |
| Cc1oc2ccccc2c1Cc1cc(I)c(OCC(=O)O)c(I)c1 | > 10 µM | 2.2 µM | 5.1 µM | > 10 µM | 4.1 µM | 4.5 µM | 101 IU/l | 0.52 nM l-1 | 16.6 ng/mL | 0.78 g/L | 54 IU/l | 46.6 nM l-1 | 0.91 g/L | 0.69 g/L | 0.93 g/L | 111 IU/l | 21 IU/l | 37.1 nM l-1 | 16.6 ng/mL | 35.1 nM l-1 | APA (Cavia porcellus [37]): 116 mV; Ratio (Cavia porcellus [38]): 1.22; APD90 (Cavia porcellus [39]): 219 ms; APD50 (Cavia porcellus [40]): 182 ms; Thyroid status (Rattus norvegicus [23]): 0.52 nM l-1; ERP (Cavia porcellus [41]): 223 ms; ALAT levels (Rattus norvegicus [24]): 40 IU/l; ALAT levels (Rattus norvegicus [25]): 67 IU/l; Thyroid status (Rattus norvegicus [26]): 0.51 nM l-1; Cholestrol levels (Rattus norvegicus [27]): 0.68 g/L; ASAT levels (Rattus norvegicus [28]): 114 IU/l; ALAT levels (Rattus norvegicus [29]): 30 IU/l; Cholestrol levels (Rattus norvegicus [31]): 0.63 g/L; ALAT levels (Rattus norvegicus [32]): 43 IU/l; Thyroid status (Rattus norvegicus [33]): 14.2 ng/mL; Vmax (Cavia porcellus [42]): 192 V s-1; ASAT levels (Rattus norvegicus [34]): 102 IU/l; ASAT levels (Rattus norvegicus [35]): 115 IU/l; ASAT levels (Rattus norvegicus [36]): 104 IU/l |
